Source: ChEMBL document CHEMBL1201862, “PubChem BioAssay data set” (2004)
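In this assay, cells in 96-well plates receive the compound at five concentrations for 48 hours. Endpoints are linearly interpolated between the surrounding concentrations. At the GI50, growth is halved.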 Calls of active or inactive are those of the source. No stated cut-off is given here; in the data, active = GI50 up to about 1.1 µM and inactive = higher.

Assays:
Assay in all cases: inhibition of tumour cell growth, NCI panel, 48 h
786-0 = test system: 786-0
A498 = test system: A498
A549 = test system: A549
ACHN = test system: ACHN
BT-549 = test system: BT-549
CAKI-1 = test system: CAKI-1
CCRF-CEM = test system: CCRF-CEM
COLO 205 = test system: COLO 205
DU-145 = test system: DU-145
EKVX = test system: EKVX
HCC 2998 = test system: HCC 2998
HCT-116 = test system: HCT-116
HCT-15 = test system: HCT-15
HL-60 = test system: HL-60
HOP-62 = test system: HOP-62
HOP-92 = test system: HOP-92
HT-29 = test system: HT-29
Hs-578T = test system: Hs-578T
IGROV-1 = test system: IGROV-1
K562 = test system: K562
KM12 = test system: KM12
LOX IMVI = test system: LOX IMVI
M14 = test system: M14
MCF7 = test system: MCF7
MDA-MB-231 = test system: MDA-MB-231
MDA-MB-435 = test system: MDA-MB-435
MDA-N = test system: MDA-N
MOLT-4 = test system: MOLT-4
Malme-3M = test system: Malme-3M
NCI-H226 = test system: NCI-H226
NCI-H23 = test system: NCI-H23
NCI-H460 = test system: NCI-H460
NCI-H522 = test system: NCI-H522
NCI/ADR-RES = test system: NCI/ADR-RES
OVCAR-3 = test system: OVCAR-3
OVCAR-4 = test system: OVCAR-4
OVCAR-5 = test system: OVCAR-5
OVCAR-8 = test system: OVCAR-8
PC-3 = test system: PC-3
RPMI-8226 = test system: RPMI-8226
RXF 393 = test system: RXF 393
SF-268 = test system: SF-268
SF-295 = test system: SF-295
SF-539 = test system: SF-539
SK-MEL-28 = test system: SK-MEL-28
SK-MEL-2 = test system: SK-MEL-2
SK-MEL-5 = test system: SK-MEL-5
SK-OV-3 = test system: SK-OV-3
SN12C = test system: SN12C
SNB-19 = test system: SNB-19
SNB-75 = test system: SNB-75
SR = test system: SR
SW-620 = test system: SW-620
T47D = test system: T47D
TK-10 = test system: TK-10
U-251 = test system: U-251
UACC-257 = test system: UACC-257
UACC-62 = test system: UACC-62
UO-31 = test system: UO-31

c1ccc2c(c1)c1c3c(c4c(n32)=NCCN4)CCC1
GI50 (786-0): 28.1 µM (inactive)
GI50 (A498): 28 µM (inactive)
GI50 (A549): 48.5 µM (inactive)
GI50 (ACHN): 40.9 µM (inactive)
GI50 (BT-549): 32.1 µM (inactive)
GI50 (CAKI-1): 40.8 µM (inactive)
GI50 (CCRF-CEM): 53.1 µM (inactive)
GI50 (COLO 205): 28.1 µM (inactive)
GI50 (DU-145): 55.3 µM (inactive)
GI50 (EKVX): 20.9 µM (inactive)
GI50 (HCC 2998): 33.6 µM (inactive)
GI50 (HCT-116): 30.5 µM (inactive)
GI50 (HCT-15): 15.2 µM
GI50 (HL-60): 44.4 µM (inactive)
GI50 (HOP-62): 36.1 µM (inactive)
GI50 (HOP-92): 25.6 µM (inactive)
GI50 (HT-29): 20.8 µM (inactive)
GI50 (Hs-578T): 26.5 µM (inactive)
GI50 (IGROV-1): 27.4 µM (inactive)
GI50 (K562): 27.6 µM (inactive)
GI50 (KM12): 27 µM (inactive)
GI50 (LOX IMVI): 21.1 µM (inactive)
GI50 (M14): 44.3 µM (inactive)
GI50 (MCF7): 24.8 µM (inactive)
GI50 (MDA-MB-231): 24.2 µM (inactive)
GI50 (MDA-MB-435): 29.7 µM (inactive)
GI50 (MDA-N): 20.7 µM (inactive)
GI50 (MOLT-4): 21.3 µM (inactive)
GI50 (Malme-3M): 31.6 µM (inactive)
GI50 (NCI-H226): 19.2 µM (inactive)
GI50 (NCI-H23): 31.6 µM (inactive)
GI50 (NCI-H460): 34.7 µM (inactive)
GI50 (NCI-H522): 20.7 µM (inactive)
GI50 (NCI/ADR-RES): 27.9 µM (inactive)
GI50 (OVCAR-3): 34.8 µM (inactive)
GI50 (OVCAR-4): 42.5 µM (inactive)
GI50 (OVCAR-5): 36.3 µM (inactive)
GI50 (OVCAR-8): 39.6 µM (inactive)
GI50 (PC-3): 26.6 µM (inactive)
GI50 (RPMI-8226): 24.3 µM (inactive)
GI50 (RXF 393): 17.9 µM (inactive)
GI50 (SF-268): 31.6 µM (inactive)
GI50 (SF-295): 26.9 µM (inactive)
GI50 (SF-539): 46.1 µM (inactive)
GI50 (SK-MEL-28): 55.3 µM (inactive)
GI50 (SK-MEL-2): 23.3 µM (inactive)
GI50 (SK-MEL-5): 32.4 µM (inactive)
GI50 (SK-OV-3): 37.1 µM (inactive)
GI50 (SN12C): 18.5 µM (inactive)
GI50 (SNB-19): 89.9 µM (inactive)
GI50 (SNB-75): 21.7 µM (inactive)
GI50 (SR): 17.4 µM (inactive)
GI50 (SW-620): 28.5 µM (inactive)
GI50 (T47D): 20.7 µM (inactive)
GI50 (TK-10): 59.7 µM (inactive)
GI50 (U-251): 33.8 µM (inactive)
GI50 (UACC-257): 38.1 µM (inactive)
GI50 (UACC-62): 30.1 µM (inactive)
GI50 (UO-31): 45.2 µM (inactive)

Nc1ccc2c(=S)c3ccccc3[nH]c2c1
GI50 (786-0): 38.5 µM (inactive)
GI50 (A498): 61.7 µM (inactive)
GI50 (A549): 23.3 µM (inactive)
GI50 (ACHN): 38.1 µM (inactive)
GI50 (BT-549): 48.4 µM (inactive)
GI50 (CAKI-1): 9.23 µM (inactive)
GI50 (CCRF-CEM): 18.8 µM (inactive)
GI50 (COLO 205): 24.5 µM (inactive)
GI50 (DU-145): > 72.1 µM (inactive)
GI50 (EKVX): 36.5 µM (inactive)
GI50 (HCC 2998): 53.5 µM (inactive)
GI50 (HCT-116): 24.3 µM (inactive)
GI50 (HCT-15): 24.2 µM
GI50 (HL-60): 16.2 µM (inactive)
GI50 (HOP-62): 24.3 µM (inactive)
GI50 (HOP-92): 26.2 µM (inactive)
GI50 (HT-29): 19.3 µM (inactive)
GI50 (Hs-578T): 55.6 µM (inactive)
GI50 (IGROV-1): 28 µM (inactive)
GI50 (K562): 16.1 µM (inactive)
GI50 (KM12): 44.4 µM (inactive)
GI50 (LOX IMVI): 26.4 µM (inactive)
GI50 (M14): 20.2 µM (inactive)
GI50 (MCF7): 20.1 µM (inactive)
GI50 (MDA-MB-231): 28.2 µM (inactive)
GI50 (MDA-MB-435): 42.2 µM (inactive)
GI50 (MDA-N): 46.8 µM (inactive)
GI50 (MOLT-4): 18.7 µM (inactive)
GI50 (Malme-3M): 40.3 µM (inactive)
GI50 (NCI-H226): 24.1 µM (inactive)
GI50 (NCI-H23): 22.9 µM (inactive)
GI50 (NCI-H460): 27.4 µM (inactive)
GI50 (NCI-H522): 46.8 µM (inactive)
GI50 (NCI/ADR-RES): 43.3 µM (inactive)
GI50 (OVCAR-3): 28.2 µM (inactive)
GI50 (OVCAR-4): 62.8 µM (inactive)
GI50 (OVCAR-5): > 61.2 µM (inactive)
GI50 (OVCAR-8): 52.5 µM (inactive)
GI50 (PC-3): 34 µM (inactive)
GI50 (RPMI-8226): 13.8 µM (inactive)
GI50 (RXF 393): 39.6 µM (inactive)
GI50 (SF-268): 65.9 µM (inactive)
GI50 (SF-295): 26.4 µM (inactive)
GI50 (SF-539): 33.2 µM (inactive)
GI50 (SK-MEL-28): 43.1 µM (inactive)
GI50 (SK-MEL-2): 51.9 µM (inactive)
GI50 (SK-MEL-5): 33.5 µM (inactive)
GI50 (SK-OV-3): 22.2 µM (inactive)
GI50 (SN12C): > 77.6 µM (inactive)
GI50 (SNB-19): 41.6 µM (inactive)
GI50 (SNB-75): 18.7 µM (inactive)
GI50 (SR): 25.1 µM (inactive)
GI50 (SW-620): 32.5 µM (inactive)
GI50 (T47D): 20.1 µM (inactive)
GI50 (TK-10): > 53.6 µM (inactive)
GI50 (U-251): 28.4 µM (inactive)
GI50 (UACC-257): 44.5 µM (inactive)
GI50 (UACC-62): 31.7 µM (inactive)
GI50 (UO-31): 27.9 µM (inactive)

C=C(C)[C@@H]1CC[C@]2(C(=O)OC3OC(COC4OC(CO)C(OC5OC(C)C(O)C(O)C5O)C(O)C4O)C(O)C(O)C3O)CC[C@]3(C)[C@H](CC[C@@H]4[C@@]5(C)CC[C@H](O)[C@@](C)(CO)[C@@H]5CC[C@]43C)[C@@H]12 (some centres not stated)
GI50 (786-0): 3.98 µM (inactive)
GI50 (A498): 2.48 µM (inactive)
GI50 (A549): 0.986 µM (active)
GI50 (ACHN): 2 µM (inactive)
GI50 (BT-549): 3.06 µM (inactive)
GI50 (CAKI-1): 3.4 µM (inactive)
GI50 (CCRF-CEM): 0.043 µM (active)
GI50 (COLO 205): 1.63 µM (inactive)
GI50 (DU-145): 4.8 µM (inactive)
GI50 (EKVX): 2.2 µM (inactive)
GI50 (HCC 2998): 2.56 µM (inactive)
GI50 (HCT-116): 2.18 µM (inactive)
GI50 (HCT-15): 2.39 µM
GI50 (HL-60): 0.0986 µM (active)
GI50 (HOP-62): 3.61 µM (inactive)
GI50 (HOP-92): 3.1 µM (inactive)
GI50 (HT-29): 3.05 µM (inactive)
GI50 (Hs-578T): 3.64 µM (inactive)
GI50 (IGROV-1): 2.74 µM (inactive)
GI50 (K562): 0.802 µM (active)
GI50 (KM12): 0.625 µM (active)
GI50 (LOX IMVI): 2.58 µM (inactive)
GI50 (M14): 3.48 µM (inactive)
GI50 (MCF7): 3.02 µM (inactive)
GI50 (MDA-MB-231): 3.56 µM (inactive)
GI50 (MDA-MB-435): 3.51 µM (inactive)
GI50 (MDA-N): 4.58 µM (inactive)
GI50 (MOLT-4): 0.39 µM (active)
GI50 (Malme-3M): 3.78 µM (inactive)
GI50 (NCI-H226): 3.16 µM (inactive)
GI50 (NCI-H23): 1.04 µM (active)
GI50 (NCI-H460): 1.37 µM (inactive)
GI50 (NCI-H522): 2.66 µM (inactive)
GI50 (NCI/ADR-RES): 2.91 µM (inactive)
GI50 (OVCAR-3): 1.84 µM (inactive)
GI50 (OVCAR-4): 3.44 µM (inactive)
GI50 (OVCAR-5): 6.81 µM (inactive)
GI50 (OVCAR-8): 3.97 µM (inactive)
GI50 (PC-3): 2.6 µM (inactive)
GI50 (RPMI-8226): 0.929 µM (active)
GI50 (RXF 393): 5.06 µM (inactive)
GI50 (SF-268): 2.93 µM (inactive)
GI50 (SF-295): 1.27 µM (inactive)
GI50 (SF-539): 2.58 µM (inactive)
GI50 (SK-MEL-28): 5.79 µM (inactive)
GI50 (SK-MEL-2): 2.39 µM (inactive)
GI50 (SK-MEL-5): 2.84 µM (inactive)
GI50 (SK-OV-3): 3.24 µM (inactive)
GI50 (SN12C): 3.5 µM (inactive)
GI50 (SNB-19): 2.72 µM (inactive)
GI50 (SNB-75): 4.39 µM (inactive)
GI50 (SR): 0.755 µM (active)
GI50 (SW-620): 2.16 µM (inactive)
GI50 (T47D): 3.4 µM (inactive)
GI50 (TK-10): 3.49 µM (inactive)
GI50 (U-251): 1.64 µM (inactive)
GI50 (UACC-257): 4.63 µM (inactive)
GI50 (UACC-62): 1.99 µM (inactive)
GI50 (UO-31): 3.93 µM (inactive)
